Test results from US9580398B2, “Compounds, compositions, and methods for modulating ferroptosis and treating excitotoxic disorders” (The Trustees of Columbia University in the City of New York, priority 2012, dated 2017).
pEC50: −log10 of the molar value.

test system: erastin (10 μM)-treated HT-1080 cells; assay: Inhibition of death in erastin (10 μM)-treated HT-1080 cells, viability by Alamar Blue; format: cell-based, human; conditions: Homo sapiens, HT-1080
Procedure: (§1) Cell viability was typically assessed in 384-well format by Alamar Blue (Invitrogen) fluorescence (ex/em 530/590) measured on a Victor3 platereader (Perkin Elmer, Waltham, Mass.). In some experiments, Trypan Blue dye exclusion counting was performed using an automated cell counter (ViCell, Beckman-Coulter Inc., Brea, Calif.). Cell viability in test conditions is reported as a percentage relative to the negative control treatment.
Flow cytometry data was analyzed using FloJo (9.3.2, Tree Star, Inc., Ashland, Oreg.). Chemical structures were drawn using ChemDraw Ultra (Cambridgesoft, Cambridge, Mass.). Computational determination of log P (Slog P function) was performed using MOE 2010.10 (Chemical Computing Group, Montreal, […].). Viability data was analyzed using Excel (Microsoft Corp., […].). Summary data and heatmaps were generated using R. Dose-response curves were computed by 4-parameter logistic regression in Prism 5.0c (GraphPad Software). Images were manipulated using Photoshop CS4 and Illustrator CS4 (Adobe, San Jose, Calif.).
The ability of various compounds disclosed herein to inhibit death in erastin (10 μM)-treated HT-1080 cells were tested. Cell viability was assessed by Alamar Blue. EC50 values (nM) were computed from dose response curves.

Question: With `Nc1ccccc1NC1CCCCC1` [SRS8-75, N1-cyclohexylbenzene-1,2-diamine] as the molecule, how does the pEC50 read?
Answer: 6.48

Question: `NCCOCCOC(=O)c1ccc(NC2CCCCC2)c(N)c1` [SRS8-43, 2-(2-aminoethoxy)ethyl 3-amino-4-(cyclohexylamino)benzoate] was tested. Which pEC50 did it give?
Answer: 6.38

same assay, conditions: Homo sapiens, HT-1080, inhibition of death in erastin (10 μM)-treated HT-1080 cells; Alamar Blue; from dose response curves

Question: With `CCOC(=O)c1ccc(NN2CCN(C)CC2)c(N)c1` [SRS8-53, ethyl 3-amino-4-(4-methylpiperazin-1-ylamino)benzoate] as the molecule, how does the pEC50 read?
Answer: 5.44

Question: How did the pEC50 turn out when `CCOC(=O)c1ccc(NC2CCCCC2)c(NCc2cc(F)cc(F)c2)c1` [SRS12-59, ethyl 4-(cyclohexylamino)-3-(3,5-difluorobenzylamino)-benzoate] was run?
Answer: 7.02

Question: How did the pEC50 turn out when `CCCCCCCCN(CCCCCCCC)c1ccc(C(=O)OCC)cc1N` [SRS12-12, ethyl 3-amino-4-(dioctylamino)benzoate] was run?
Answer: < 5.00

Question: With `CCOC(=O)c1ccc(NC2CCCCC2)c(NCc2ccccn2)c1` [SRS12-46, ethyl 4-(cyclohexylamino)-3-(pyridin-2-ylmethylamino)-benzoate] as the molecule, how does the pEC50 read?
Answer: 7.49

Question: With `CCOC(=O)c1ccc(NC2CCC(C(C)(C)C)CC2)c(N)c1` (stereo not drawn) [SRS8-92, ethyl 3-amino-4-(4-tert-butylcyclohexylamino)benzoate] as the molecule, how does the pEC50 read?
Answer: 7.38

Question: How did the pEC50 turn out when `CCOC(=O)c1ccc(NC2CCCCC2)c(NCc2ccc3ccccc3c2)c1` [SRS12-51, ethyl 4-(cyclohexylamino)-3-(naphthalen-2-ylmethylamino)-benzoate] was run?
Answer: 7.25

Question: How did the pEC50 turn out when `CCOC(=O)c1ccc(NC2C3CC4CC(C3)CC2C4)c(NCc2ccncc2)c1` (stereo not drawn) [SRS15-21, ethyl 4-(2-adamantylamino)-3-((pyridin-4-ylmethyl)amino)-benzoate] was run?
Answer: > 8.30

Question: How did the pEC50 turn out when `CCOC(=O)c1ccc(Cl)c(N)c1` [SRS8-62, ethyl 3-amino-4-chlorobenzoate] was run?
Answer: < 5.00

Question: `CCOC(=O)c1ccc(CNc2cc(C(=O)OCC)ccc2NC2CCCCC2)cc1` [SRS12-84, ethyl 4-(cyclohexylamino)-3-(4-(ethoxycarbonyl)benzylamino)-benzoate] was tested. Which pEC50 did it give?
Answer: 7.28

Question: `CCOC(=O)c1ccc(NC2CCCCC2)c(NCc2cncnc2)c1` [SRS13-35, ethyl 4-(cyclohexylamino)-3-(pyrimidin-5-ylmethylamino)-benzoate] was tested. Which pEC50 did it give?
Answer: 7.57

Question: `CCOC(=O)c1ccc(NC2CCCCC2)c(NCc2ccc(F)c(C#N)c2)c1` [SRS12-54, ethyl 3-(3-cyano-4-fluorobenzylamino)-4-(cyclohexylamino)-benzoate] was tested. Which pEC50 did it give?
Answer: 6.80

Question: How did the pEC50 turn out when `CCOC(=O)c1ccc(NC2CCCCC2)c(NCc2ccc([N+](=O)[O-])cc2)c1` [SRS12-36, ethyl 4-(cyclohexylamino)-3-((4-nitrobenzyl)amino)benzoate] was run?
Answer: 7.46

Question: How did the pEC50 turn out when `CCOC(=O)c1ccc(NC2CCOCC2)c(N)c1` [SRS8-41, ethyl 3-amino-4-(tetrahydro-2H-pyran-4-ylamino)benzoate] was run?
Answer: 5.84

Question: How did the pEC50 turn out when `CCOC(=O)c1cnc(NC2CCCCC2)c(NCc2ccncc2)c1` [SRS14-92, ethyl 6-(cyclohexylamino)-5-(pyridin-4-ylmethylamino)pyridine-3-carboxylate] was run?
Answer: 6.71

Question: `CCOC(=O)c1ccc(NC2C3CC4CC(C3)CC2C4)c(NCc2ccccc2)c1` (stereo not drawn) [SRS15-20-mono, ethyl 3-(benzylamino)-4-(2-adamantylamino)benzoate] was tested. Which pEC50 did it give?
Answer: 7.66

Question: With `CCOC(=O)c1ccc(NC2CCCCCCC2)c(C(=O)OC(C)(C)C)c1` [SRS8-91, ethyl 3-(tert-butoxycarbonyl)-4-(cyclooctylamino)benzoate] as the molecule, how does the pEC50 read?
Answer: < 5.00

Question: With `CCOC(=O)c1cnc(NC2CCCCC2)c(NCc2ccccc2)c1` [SRS14-91, ethyl 5-(benzylamino)-6-(cyclohexylamino)pyridine-3-carboxylate] as the molecule, how does the pEC50 read?
Answer: 7.32

Question: How did the pEC50 turn out when `CCOC(=O)c1ccc(NC23CC4CC(CC(C4)C2)C3)c(N)c1` [SRS15-18, ethyl 3-amino-4-(1-adamantylamino)benzoate] was run?
Answer: 7.06

Question: With `CCOC(=O)c1ccc(NC2CCCC2)c(N)c1` [SRS8-73, ethyl 3-amino-4-(cyclopentylamino)benzoate] as the molecule, how does the pEC50 read?
Answer: 6.92

Question: How did the pEC50 turn out when `CC(C)(C)OC(=O)CCOCCOC(=O)c1ccc(NC2CCCCC2)c(N)c1` [SRS8-37, 2-(2-(tert-butoxycarbonyl)ethoxy)ethyl 3-amino-4-(cyclohexylamino)benzoate] was run?
Answer: 6.80

Question: With `CCOC(=O)c1cc(N)c(NC2CCCCC2)cc1C` [SRS14-58, ethyl 5-amino-4-(cyclohexylamino)-2-methylbenzoate] as the molecule, how does the pEC50 read?
Answer: 7.55

Question: With `CCOC(=O)c1ccc(NC2C3CC4CC(C3)CC2C4)c(N)c1` (stereo not drawn) [SRS15-17, ethyl 3-amino-4-(2-adamantylamino)benzoate] as the molecule, how does the pEC50 read?
Answer: 6.77

Question: With `CCOC(=O)c1ccc(NC2CCCCCCC2)c(N(C)C)c1` [SRS9-01, ethyl 4-(cyclooctylamino)-3-(dimethylamino)benzoate] as the molecule, how does the pEC50 read?
Answer: 5.46

Question: `CCOC(=O)c1cnc(NC2CCCCC2)c(N)c1` [SRS14-86, ethyl 5-amino-6-(cyclohexylamino)pyridine-3-carboxylate] was tested. Which pEC50 did it give?
Answer: 6.26

Question: How did the pEC50 turn out when `CCOC(=O)c1ccc(NC2C3CC4CC(C3)CC2C4)c(NCc2cncnc2)c1` (stereo not drawn) [SRS15-22, ethyl 4-(2-adamantylamino)-3-(pyrimidin-5-ylmethylamino)-benzoate] was run?
Answer: 7.68

Question: With `CCOC(=O)c1ccc(NC23CC4CC(CC(C4)C2)C3)c(NCc2ccncc2)c1` [SRS15-24, ethyl 4-(1-adamantylamino)-3-((pyridin-4-ylmethyl)amino)-benzoate] as the molecule, how does the pEC50 read?
Answer: 8.05

Question: How did the pEC50 turn out when `CCOC(=O)c1cc(N)c(NC2CCCCC2)cc1F` [SRS14-55, ethyl 5-amino-4-(cyclohexylamino)-2-fluorobenzoate] was run?
Answer: 6.98

Question: How did the pEC50 turn out when `CCOC(=O)c1ccc(NC23CC4CC(CC(C4)C2)C3)c(NCc2cncnc2)c1` [SRS15-25, ethyl 4-(1-adamantylamino)-3-(pyrimidin-5-ylmethylamino)-benzoate] was run?
Answer: 7.27

Question: How did the pEC50 turn out when `CCOC(=O)c1cnc(NC2CCCCC2)c(NCc2ccncn2)c1` [SRS14-93, ethyl 6-(cyclohexylamino)-5-(pyrimidin-4 ylmethylamino)-pyridine-3-carboxylate] was run?
Answer: 5.81

Question: `CCOC(=O)c1ccc(NC2CCCCC2)c(NCc2ccc(C(=O)OC)cc2)c1` [SRS12-69, ethyl 4-(cyclohexylamino)-3-(4-(methoxycarbonyl)-benzylamino)benzoate] was tested. Which pEC50 did it give?
Answer: 7.24

Question: With `CCOC(=O)c1cc(N)c(NC2CCCCC2)cc1Cl` [SRS14-57, ethyl 5-amino-2-chloro-4-(cyclohexylamino)benzoate] as the molecule, how does the pEC50 read?
Answer: 7.27

Question: With `CCOC(=O)c1ccc(NC2CCC(C(C)(C)C)CC2)c(NCc2cncnc2)c1` (stereo not drawn) [SRS13-37, ethyl 4-(4-tert-butylcyclohexylamino)-3-(pyrimidin-5-ylmethylamino)benzoate] as the molecule, how does the pEC50 read?
Answer: 7.82

Question: With `CCOC(=O)c1ccc(NC2CCNCC2)c(N)c1` [SRS8-81, ethyl 3-amino-4-(piperidin-4-ylamino)benzoate] as the molecule, how does the pEC50 read?
Answer: 6.46

Question: `CCOC(=O)c1ccc(NC2CCC2)c(N)c1` [SRS8-71, ethyl 3-amino-4-(cyclobutylamino)benzoate] was tested. Which pEC50 did it give?
Answer: 6.58

Question: `CCOC(=O)c1ccc(NC2CCCCCC2)c(N)c1` [SRS8-90, ethyl 3-amino-4-(cycloheptylamino)benzoate] was tested. Which pEC50 did it give?
Answer: 6.89

same assay, conditions: inhibition of death in erastin (10 μM)-treated HT-1080 cells; Alamar Blue; from dose response curves

Question: `CCOC(=O)c1ccc(NC2CCC(C(=O)OC(C)(C)C)CC2)c(N)c1` (stereo not drawn) [SRS8-46, ethyl 3-amino-4-(4-(tert-butoxycarbonyl)cyclohexylamino) benzoate] was tested. Which pEC50 did it give?
Answer: 6.29

test system: HT-1080 cells; assay: Erastin-induced death in HT-1080 cells with co-treated inhibitors (viability, microscopy); format: cell-based, human; conditions: HT-1080 and BJeLR cells; media with glucose and Gln; AOA 2 mM
Procedure: as §1
Phase contrast images were acquired using an AMG EVOS FL (Advanced Microscopy Group) microscope equipped with a 10× phase-contrast objective. Three independent fields were acquired for each experimental condition. Representative samples from one field of view are shown.

Question: Which “effect on erastin-induced ferroptosis (glutamine metabolism modulators)” value (“effect on erastin-induced ferroptosis” for short) does the source give for `O=C(O)C(Cl)Cl` [DCA, dichloroacetic acid] here?
Answer: had no effect

Question: How did the “effect on erastin-induced ferroptosis” value turn out when `COC(=O)CCC(=O)C(=O)OC` [DMK, dimethyl alphaketoglutarate] was run?
Answer: lethality of erastin was restored

Question: `NOCC(=O)O` [AOA, aminooxyacetic acid] was tested. Which “effect on erastin-induced ferroptosis” value did it give?
Answer: rescued

same assay, conditions: HT-1080 cells

Question: With `Cc1ccc(N(CC(=O)O)CC(=O)O)c(OCCOc2cc3cc(-c4ncc(C(=O)O)o4)oc3cc2N(CC(=O)O)CC(=O)O)c1` [Fura-2] as the molecule, how does the “effect of co-treatment on erastin-induced death” value (from here on “effect of co-treatment”) read?
Answer: had no effect on erastin-induced death

Question: Which “effect of co-treatment” value does the source give for `CC(=O)OCOC(=O)CN(CC(=O)OCOC(C)=O)c1ccccc1OCCOc1ccccc1N(CC(=O)OCOC(C)=O)CC(=O)OCOC(C)=O` [BAPTA-AM] here?
Answer: had no effect on erastin-induced death

Question: `O=C(O)CN(CCOCCOCCN(CC(=O)O)CC(=O)O)CC(=O)O` [EGTA] was tested. Which “effect of co-treatment” value did it give?
Answer: had no effect on erastin-induced death

same assay, conditions: HT-1080 cells; added up to 6 hours after erastin

Question: Which “protection from death on late addition” value does the source give for `c1ccc(-c2ccccn2)nc1` [2,2-bipyridyl] here?
Answer: substantial protection from death
